Assay results as given in patent US20080009418A1, “Selective Inhibitors” (Alchemia LTD., priority 2004, published 2008).

Experiments:
Human neurokinin (NK1) = biological target: T1, Human neurokinin (NK1) (Homo sapiens, UniProt P25103); test: Radioligand binding, human neurokinin NK1 membranes, filtration, [125I]-Substance P; conditions: compound at 10 μM; for A8 radioligand binding, percentage inhibition: [125I]-Substance P
T1 construct: purchased Perkin Elmer Biosignal
Procedure, shortened: (§1)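 Filtration binding on cloned human receptor membranes (1 Unit/well), [125I]-Substance P for NK1 and [3H]-Diprenorphine for KOP, 1 h at room temperature. Filters PEI-presoaked, washed with cold 50 mM Tris-HCl pH 7.4, counted by scintillation; percent inhibition calculated, reference ligand defining non-specific binding.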

Human μ-opioid (MOP) = biological target: T2, Human μ-opioid (MOP) (Homo sapiens, UniProt P35372); test: Radioligand binding, human μ-opioid (MOP) membranes, FlashPlate, [3H]-Naloxone; conditions: compound at 10 μM; for A7 radioligand binding, percentage inhibition: [3H]-Naloxone
T2 construct: purchased Perkin Elmer Biosignal
T2 sequence (P35372 whole entry): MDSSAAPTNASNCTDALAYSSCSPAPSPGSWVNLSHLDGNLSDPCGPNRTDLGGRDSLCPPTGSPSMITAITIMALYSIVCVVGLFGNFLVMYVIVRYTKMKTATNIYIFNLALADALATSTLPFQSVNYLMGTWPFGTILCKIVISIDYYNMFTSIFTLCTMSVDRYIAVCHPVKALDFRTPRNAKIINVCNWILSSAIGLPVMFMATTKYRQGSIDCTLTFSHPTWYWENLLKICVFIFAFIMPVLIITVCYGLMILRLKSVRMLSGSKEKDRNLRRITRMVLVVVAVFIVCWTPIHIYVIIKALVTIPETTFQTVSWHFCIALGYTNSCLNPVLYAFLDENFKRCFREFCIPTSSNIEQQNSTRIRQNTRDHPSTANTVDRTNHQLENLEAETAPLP
Procedure, shortened: (§2)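 Cloned human receptor membranes were coated onto FlashPlate wells and incubated with radioligand and compound (added from a 0.5 mM DMSO daughter plate) for 1 hour at room temperature in the dark. Scintillation counting gave percent inhibition, with DMSO defining total and reference ligand defining non-specific binding.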

Human δ-opioid (DOP) = biological target: T3, Human δ-opioid (DOP) (Homo sapiens, UniProt P41143); test: Radioligand binding, human δ-opioid (DOP) membranes, FlashPlate, [3H]-Bremazocine; conditions: compound at 10 μM; for A1 radioligand binding, percentage inhibition: [3H]-Bremazocine
T3 construct: purchased Perkin Elmer Biosignal
T3 sequence (P41143 whole entry): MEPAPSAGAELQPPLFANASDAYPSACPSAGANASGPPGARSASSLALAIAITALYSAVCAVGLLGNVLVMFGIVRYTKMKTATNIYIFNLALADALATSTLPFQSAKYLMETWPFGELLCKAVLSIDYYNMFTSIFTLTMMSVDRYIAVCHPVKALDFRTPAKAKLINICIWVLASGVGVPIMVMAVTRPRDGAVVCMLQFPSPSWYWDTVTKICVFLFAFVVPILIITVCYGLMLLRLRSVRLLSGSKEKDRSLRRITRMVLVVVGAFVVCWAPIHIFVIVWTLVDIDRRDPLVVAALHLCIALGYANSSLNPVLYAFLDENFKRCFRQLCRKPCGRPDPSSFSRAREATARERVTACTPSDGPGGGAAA
Procedure, shortened: as §2

[1] = biological target: T4, Human neuropeptide Y (NPY-Y1) (Homo sapiens, UniProt P25929); test: Radioligand binding, human neuropeptide Y NPY-Y1 membranes, FlashPlate, [125I]-PYY; conditions: compound at 10 μM; for A9 radioligand binding, percentage inhibition: [125I]-PYY
T4 construct: purchased Perkin Elmer Biosignal
T4 sequence (P25929 1-384): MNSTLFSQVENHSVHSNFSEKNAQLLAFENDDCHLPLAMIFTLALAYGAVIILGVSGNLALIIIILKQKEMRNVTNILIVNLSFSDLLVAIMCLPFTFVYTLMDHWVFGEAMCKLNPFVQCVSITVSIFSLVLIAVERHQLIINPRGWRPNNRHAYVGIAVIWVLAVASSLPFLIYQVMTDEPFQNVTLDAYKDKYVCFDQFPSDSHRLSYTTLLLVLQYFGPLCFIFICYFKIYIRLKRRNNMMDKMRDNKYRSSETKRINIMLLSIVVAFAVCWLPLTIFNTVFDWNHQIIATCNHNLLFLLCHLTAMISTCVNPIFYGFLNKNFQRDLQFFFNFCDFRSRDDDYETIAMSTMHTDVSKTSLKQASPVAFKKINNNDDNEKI
Procedure, shortened: as §2

Human κ-Opioid (KOP) = biological target: T5, Human κ-Opioid (KOP) (Homo sapiens, UniProt P41145); test: Radioligand binding, human κ-opioid (KOP) membranes, filtration, [3H]-Diprenorphine; conditions: compound at 10 μM; for A2 radioligand binding, percentage inhibition: [3H]-Diprenorphine
T5 construct: purchased Perkin Elmer Biosignal
T5 sequence (P41145 whole entry): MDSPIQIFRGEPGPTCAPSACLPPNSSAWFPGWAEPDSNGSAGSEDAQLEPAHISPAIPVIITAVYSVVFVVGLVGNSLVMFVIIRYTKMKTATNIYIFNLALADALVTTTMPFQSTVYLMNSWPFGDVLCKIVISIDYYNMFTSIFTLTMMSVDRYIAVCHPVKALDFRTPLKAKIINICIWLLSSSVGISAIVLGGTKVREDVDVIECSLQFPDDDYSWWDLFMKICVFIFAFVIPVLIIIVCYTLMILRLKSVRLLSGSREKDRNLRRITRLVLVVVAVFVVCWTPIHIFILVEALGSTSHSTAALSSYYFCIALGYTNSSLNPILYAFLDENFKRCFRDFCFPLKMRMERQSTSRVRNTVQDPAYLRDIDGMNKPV
Procedure, shortened: as §1

Human Melanocortin (MC4) = biological target: T6, Human Melanocortin (MC4) (Homo sapiens, UniProt P32245); test: Radioligand binding, human melanocortin MC4 membranes, FlashPlate, [125I]-NDP-αMSH; conditions: compound at 10 μM; for A4 radioligand binding, percentage inhibition: [125I]-NDP-αMSH
T6 construct: purchased Perkin Elmer Biosignal
T6 sequence (P32245 whole entry): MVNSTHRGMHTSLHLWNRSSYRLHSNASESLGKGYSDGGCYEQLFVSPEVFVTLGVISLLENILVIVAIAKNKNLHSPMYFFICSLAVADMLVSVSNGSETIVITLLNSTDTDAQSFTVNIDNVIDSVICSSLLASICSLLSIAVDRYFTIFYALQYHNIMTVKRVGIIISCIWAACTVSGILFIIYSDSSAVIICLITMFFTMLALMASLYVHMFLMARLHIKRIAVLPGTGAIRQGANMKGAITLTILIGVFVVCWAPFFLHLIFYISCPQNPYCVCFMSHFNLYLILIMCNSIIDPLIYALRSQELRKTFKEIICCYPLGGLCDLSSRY
Procedure, shortened: as §2

[2] = biological target: T7, Human melanin-concentrating hormone (MCH1) (Homo sapiens, UniProt Q99705); test: Radioligand binding, human melanin-concentrating hormone MCH1 membranes, FlashPlate, [125I]-S36057; conditions: compound at 10 μM; for A6 radioligand binding, percentage inhibition: [125I]-S36057
T7 construct: purchased Perkin Elmer Biosignal
T7 sequence (Q99705 whole entry): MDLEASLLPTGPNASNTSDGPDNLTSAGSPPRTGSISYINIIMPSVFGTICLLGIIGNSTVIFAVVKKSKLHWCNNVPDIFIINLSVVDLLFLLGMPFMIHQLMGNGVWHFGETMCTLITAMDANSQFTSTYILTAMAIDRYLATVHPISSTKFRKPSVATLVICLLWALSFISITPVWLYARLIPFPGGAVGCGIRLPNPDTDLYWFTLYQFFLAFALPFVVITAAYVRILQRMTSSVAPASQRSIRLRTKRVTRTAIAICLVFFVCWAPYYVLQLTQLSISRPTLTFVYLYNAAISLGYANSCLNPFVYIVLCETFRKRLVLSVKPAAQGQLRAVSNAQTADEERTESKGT
Procedure, shortened: as §2

Human opioid (ORL1) = biological target: T8, Human opioid (ORL1) (Homo sapiens, UniProt P41146); test: Radioligand binding, human opioid ORL1 membranes, FlashPlate, [125I]-Nociceptin; conditions: compound at 10 μM; for A10 radioligand binding, percentage inhibition: [125I]-Nociceptin
T8 construct: purchased Perkin Elmer Biosignal
T8 sequence (P41146 whole entry): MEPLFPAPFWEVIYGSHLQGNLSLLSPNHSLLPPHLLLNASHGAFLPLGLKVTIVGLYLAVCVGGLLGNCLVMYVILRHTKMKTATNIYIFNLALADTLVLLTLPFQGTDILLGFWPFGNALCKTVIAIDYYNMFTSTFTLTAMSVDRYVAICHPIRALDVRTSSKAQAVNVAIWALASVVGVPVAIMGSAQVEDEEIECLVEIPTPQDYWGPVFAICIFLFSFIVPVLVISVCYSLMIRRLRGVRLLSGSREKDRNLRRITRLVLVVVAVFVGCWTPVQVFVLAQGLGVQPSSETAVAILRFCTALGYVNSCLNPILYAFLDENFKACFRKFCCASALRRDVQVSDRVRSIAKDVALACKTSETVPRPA
Procedure, shortened: as §2

Human melanocortin (MC5) = biological target: T9, Human melanocortin (MC5) (Homo sapiens, UniProt P33032); test: Radioligand binding, human melanocortin MC5 membranes, FlashPlate, [125I]-NDP-αMSH; conditions: compound at 10 μM; for A5 radioligand binding, percentage inhibition: [125I]-NDP-αMSH
T9 construct: purchased Perkin Elmer Biosignal
T9 sequence (P33032 whole entry): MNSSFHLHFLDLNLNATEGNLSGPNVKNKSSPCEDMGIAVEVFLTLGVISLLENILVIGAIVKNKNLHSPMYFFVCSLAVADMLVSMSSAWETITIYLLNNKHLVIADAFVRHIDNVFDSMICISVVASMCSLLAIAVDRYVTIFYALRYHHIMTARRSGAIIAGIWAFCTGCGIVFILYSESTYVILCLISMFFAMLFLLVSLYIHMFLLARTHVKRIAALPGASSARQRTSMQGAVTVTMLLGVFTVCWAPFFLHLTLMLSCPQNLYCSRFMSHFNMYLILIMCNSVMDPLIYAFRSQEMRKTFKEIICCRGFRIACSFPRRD
Procedure, shortened: as §2

Mouse urotensin (mUR2) = biological target: T10, Mouse urotensin (mUR2) (Mus musculus, UniProt Q8VIH9); test: Radioligand binding, mouse urotensin mUR2 membranes, FlashPlate, [125I]-Urotensin II; conditions: compound at 10 μM; for A11 radioligand binding, percentage inhibition: [125I]-Urotensin II
T10 construct: purchased Perkin Elmer Biosignal
T10 sequence (Q8VIH9 1-385): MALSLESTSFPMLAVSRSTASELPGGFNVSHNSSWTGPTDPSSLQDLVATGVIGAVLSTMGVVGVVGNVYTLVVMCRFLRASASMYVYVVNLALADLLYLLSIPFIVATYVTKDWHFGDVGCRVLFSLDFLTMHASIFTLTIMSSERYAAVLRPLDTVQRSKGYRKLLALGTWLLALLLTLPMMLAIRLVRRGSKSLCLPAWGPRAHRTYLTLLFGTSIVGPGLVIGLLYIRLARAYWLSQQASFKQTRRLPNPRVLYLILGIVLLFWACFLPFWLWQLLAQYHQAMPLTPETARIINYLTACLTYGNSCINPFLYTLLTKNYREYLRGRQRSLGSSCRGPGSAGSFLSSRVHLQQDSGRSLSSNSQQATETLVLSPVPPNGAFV
Procedure, shortened: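 Cloned mouse urotensin (mUR2) receptor membranes from Perkin Elmer Biosignal were immobilized in FlashPlate microplates using a proprietary coating. Each well got 19.5 μl buffer, then 0.5 μl of DMSO, reference ligand, or compound. Adding 5 μl of [125I]-Urotensin II, diluted to 5× final concentration in binding buffer, started binding. Plates were sealed with TopSeal-A and incubated 1 hour at room temperature in the dark. Wells were counted for 30 seconds each on a TopCount after a 60-second delay, and percentage inhibition was calculated.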

Human Melanocortin (MC3) = biological target: T11, Human Melanocortin (MC3) (Homo sapiens, UniProt P41968); test: Radioligand binding, human melanocortin MC3 membranes, FlashPlate, [125I]-NDP-αMSH; conditions: compound at 10 μM; for A3 radioligand binding, percentage inhibition: [125I]-NDP-αMSH
T11 construct: purchased Perkin Elmer Biosignal
T11 sequence (P41968 whole entry): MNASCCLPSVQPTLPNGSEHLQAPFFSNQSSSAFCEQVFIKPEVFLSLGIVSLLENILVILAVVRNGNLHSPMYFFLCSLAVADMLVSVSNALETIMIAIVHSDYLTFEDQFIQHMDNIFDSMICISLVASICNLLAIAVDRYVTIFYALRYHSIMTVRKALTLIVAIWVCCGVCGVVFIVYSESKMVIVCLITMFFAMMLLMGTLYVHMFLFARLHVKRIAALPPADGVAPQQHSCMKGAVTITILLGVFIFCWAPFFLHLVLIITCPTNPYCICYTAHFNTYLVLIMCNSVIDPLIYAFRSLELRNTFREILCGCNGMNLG
Procedure, shortened: as §2

T1 sequence (P25103 whole entry): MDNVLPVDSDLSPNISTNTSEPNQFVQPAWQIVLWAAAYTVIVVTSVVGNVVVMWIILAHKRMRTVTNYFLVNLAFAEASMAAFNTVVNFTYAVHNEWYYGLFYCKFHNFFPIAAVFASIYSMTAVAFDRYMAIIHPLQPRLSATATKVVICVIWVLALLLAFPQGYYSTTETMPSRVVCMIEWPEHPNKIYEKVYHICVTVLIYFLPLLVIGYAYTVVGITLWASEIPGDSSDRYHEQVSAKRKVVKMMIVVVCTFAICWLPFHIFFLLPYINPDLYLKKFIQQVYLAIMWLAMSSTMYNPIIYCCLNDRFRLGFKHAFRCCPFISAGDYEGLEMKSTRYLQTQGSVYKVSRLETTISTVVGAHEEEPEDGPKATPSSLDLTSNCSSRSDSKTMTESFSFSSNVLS

SMILES | A8 radioligand binding, percentage inhibition (Human neurokinin (NK1)) | A7 radioligand binding, percentage inhibition (Human μ-opioid (MOP)) | A1 radioligand binding, percentage inhibition (Human δ-opioid (DOP)) | A9 radioligand binding, percentage inhibition [1] | A2 radioligand binding, percentage inhibition (Human κ-Opioid (KOP)) | A4 radioligand binding, percentage inhibition (Human Melanocortin (MC4)) | A6 radioligand binding, percentage inhibition [2] | A10 radioligand binding, percentage inhibition (Human opioid (ORL1)) | A5 radioligand binding, percentage inhibition (Human melanocortin (MC5)) | A11 radioligand binding, percentage inhibition (Mouse urotensin (mUR2)) | A3 radioligand binding, percentage inhibition (Human Melanocortin (MC3)) | other results
CO[C@H]1[C@H](O)[C@@H](COCc2ccc(-c3ccccc3)cc2)OC(OCc2ccc(Cl)cc2)[C@@H]1NC(=O)CCCN (stereo partly drawn) [compound 95] | + (“+” indicates greater than 50% inhibition at 10 μM) | − (“−” indicates less than 50% inhibition at 10 μM) | − (“−” indicates less than 50% inhibition at 10 μM) | − (“−” indicates less than 50% inhibition at 10 μM) | − (“−” indicates less than 50% inhibition at 10 μM) | + (“+” indicates greater than 50% inhibition at 10 μM) | + (“+” indicates greater than 50% inhibition at 10 μM) | + (“+” indicates greater than 50% inhibition at 10 μM) | + (“+” indicates greater than 50% inhibition at 10 μM) | − (“−” indicates less than 50% inhibition at 10 μM) | − (“−” indicates less than 50% inhibition at 10 μM) | 
CO[C@H]1[C@H](O)[C@@H](COCc2ccc(Cl)cc2)OC(OCc2ccc3ccccc3c2)[C@@H]1NC(=O)CCCN (stereo partly drawn) [compound 80] |  |  |  |  |  |  |  |  |  |  |  | A8 radioligand binding inhibition (Human neurokinin (NK1); human neurokinin NK1 membranes): + (“+” indicates greater than 50% inhibition at 10 μM); A7 radioligand binding inhibition (Human μ-opioid (MOP); human μ-opioid (MOP) membranes): − (“−” indicates less than 50% inhibition at 10 μM); A1 radioligand binding inhibition (Human δ-opioid (DOP); human δ-opioid (DOP) membranes): − (“−” indicates less than 50% inhibition at 10 μM); A9 radioligand binding inhibition ([1]; human NPY-Y1 membranes): − (“−” indicates less than 50% inhibition at 10 μM); A2 radioligand binding inhibition (Human κ-Opioid (KOP); human κ-opioid (KOP) membranes): − (“−” indicates less than 50% inhibition at 10 μM); A4 radioligand binding inhibition (Human Melanocortin (MC4); human melanocortin MC4 membranes): + (“+” indicates greater than 50% inhibition at 10 μM); A6 radioligand binding inhibition ([2]; human MCH1 membranes): − (“−” indicates less than 50% inhibition at 10 μM); A10 radioligand binding inhibition (Human opioid (ORL1); human ORL1 membranes): − (“−” indicates less than 50% inhibition at 10 μM); A5 radioligand binding inhibition (Human melanocortin (MC5); human melanocortin MC5 membranes): + (“+” indicates greater than 50% inhibition at 10 μM); A11 radioligand binding inhibition (Mouse urotensin (mUR2); mouse urotensin mUR2 membranes): − (“−” indicates less than 50% inhibition at 10 μM); A3 radioligand binding inhibition (Human Melanocortin (MC3); human melanocortin MC3 membranes): − (“−” indicates less than 50% inhibition at 10 μM)
CO[C@H]1[C@H](O)[C@@H](COCc2ccc(-c3ccccc3)cc2)OC(OCCc2ccccc2)[C@@H]1NC(=O)CCCN (stereo partly drawn) [compound 111] | + (“+” indicates greater than 50% inhibition at 10 μM) | − (“−” indicates less than 50% inhibition at 10 μM) | − (“−” indicates less than 50% inhibition at 10 μM) | − (“−” indicates less than 50% inhibition at 10 μM) | − (“−” indicates less than 50% inhibition at 10 μM) | − (“−” indicates less than 50% inhibition at 10 μM) | − (“−” indicates less than 50% inhibition at 10 μM) | − (“−” indicates less than 50% inhibition at 10 μM) | − (“−” indicates less than 50% inhibition at 10 μM) | − (“−” indicates less than 50% inhibition at 10 μM) | − (“−” indicates less than 50% inhibition at 10 μM) | 
